Substitutions are numbered along the chain they refer to. Where two headings read alike, the source gives them in different places. Oligonucleotides are written 5' to 3', each unit as a sugar letter and its base; * is a phosphorothioate linkage, no mark a phosphodiester; rarer units and linkages stand in square brackets, end groups in braces. Plain capitals give the bases only. d = 2'-deoxy (DNA); r = 2'-OH (RNA); f = 2'-fluoro
Key:
[1] = system: rabbit vWF A1 domain (SEQ ID NO 6); experiment: dot blot KD determination, rabbit vWF A1 domain; format: binding; details: for Kd: rRdY minimers, 8 point titration 0-300 nM
Experimental: A 12 point protein titration was used in the dot blot assay (300 nM, 100 nM, 30 nM, 10 nM, 3 nM, 1 nM, 300 pM, 100 pM, 30 pM, 10 pM, 3 pM, 0 pM) in 1×DPBS plus 0.1 mg/mL BSA at room temperature for 30 minutes.

[2] = molecular target: T1, human vWF A1 domain (SEQ ID NO 5) (Homo sapiens, UniProt P04275, T1381A); experiment: dot blot KD determination, human vWF A1 domain
Experimental: For KD determination, aptamers transcripts were purified on 10% denaturing polyacrylamide gels, 5′ end labeled with γ-^32P ATP.
For KD determination, aptamers were purified on denaturing polyacrylamide gels and 5′-end labeled with γ-^32P ATP. A 6 point protein titration of human vWF A1 domain (SEQ ID NO 5) was used in the dot blot assay (333 nM, 100 nM, 33 nM, 10 nM, 3 nM, 0 nM) in 1×DPBS plus 0.1 mg/mL BSA at room temperature for 30 minutes. KD values were calculated by fitting the equation y=(max/(1+K/protein))+yint using KaleidaGraph (KaleidaGraph v. 3.51, Synergy Software).
KD values were calculated by fitting the equation y=(max/(1+K/protein))+yint using KaleidaGraph (KaleidaGraph v. 3.51, Synergy Software).
All minimer sequences were transcribed, gel-purified on 15% denaturing polyacrylamide gels, 5-^32 end-labeled with γ^32P ATP, and then desalted using two Centri-Spin 10 columns (Princeton Separations Cat. #CS-101, Adelphia, N.J.). For KD determination, minimer transcripts were tested for direct binding to full length human vWF (SEQ ID NO 7), human vWF A1 domain (SEQ ID NO 5), and rabbit vWF A1 domain (SEQ ID NO 6) using an 8 point protein titration from 0-300 nM (3 fold dilutions) in 1× Dulbecco's PBS containing 0.1 mg/mL BSA (in a final volume of 50 uL) for 30 minutes at room temperature and then applied to a nitrocellulose and nylon filter sandwich in a dot blot apparatus (Schleicher and Schuell, Keene, N.H.). KD values were calculated by fitting the equation y=(max/(1+K/protein))+yint using KaleidaGraph (KaleidaGraph v. 3.51, Synergy Software).
All minimer DNA sequences were chemically synthesized, 5-^32P end-labeled with γ-^32P ATP, and then desalted using two Centri-Spin 10 columns (Princeton Separations, Cat. #CS-101, Adelphia, N.J.). […] KD values were calculated by fitting the equation y=(max/(1+K/protein))+yint using KaleidaGraph (KaleidaGraph v. 3.51, Synergy Software).

[3] = system: full length human vWF binding to lyophilized platelets; experiment: Full length human von Willebrand Factor platelet binding assay (FACS); format: cell-based; details: 5 nM full length human vWF, lyophilized platelets, botrocetin; for IC50: read-out: Inhibition of full length hVWF binding in FACS assay, Average IC50; for Inhibition of full length hVWF binding in FACS assay, IC50 range: both bounds in nM
How it was run: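 Aptamer titrations (0.1–1000 nM) pre-incubated with 5 nM full-length human vWF, then added to lyophilized platelets plus botrocetin for 15 min at 37 °C in PBS/0.5% BSA. Bound vWF detected by anti-vWF then FITC secondary antibody via flow cytometry MFI; % inhibition versus no-aptamer binding fitted for IC50.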

[4] = system: rabbit vWF domain A1 binding to lyophilized platelets; experiment: Rabbit von Willebrand Factor domain A1 platelet binding assay (FACS); format: cell-based; details: 4 nM rabbit A1 vWF, lyophilized platelets, botrocetin
Experimental: Botrocetin induces the binding of the A1 domain of vWF to platelets, as well as the full length protein. It was determined by the inventors that 6-Histidine-tagged rabbit A1 domain vWF purified protein could be induced to bind to human lyophilized platelets with botrocetin. Rabbit A1 binding to platelets is measured with an anti-poly-His antibody followed by incubation with a phycoerythrin conjugated secondary antibody. The degree of binding can be quantified by flow cytometric analysis. The ability of aptamers to block the binding of rabbit A1 to human fixed platelets was correlated with decreased fluorescence signal.
The ability of aptamers of the invention to block rabbit vWF domain A1 binding to lyophilized platelets was also assessed by flow cytometric analysis. Titrations of aptamers (zero, 0.1 nM to 1000 nM) were preincubated briefly with 4 nM of rabbit A1 vWF in FACS buffer (PBS plus 0.5% bovine serum albumin) at room temperature in a volume of 50 uL. Another 50 uL containing 5 uL of lyophilized platelets plus 1 uL of 0.1 U/uL of botrocetin in FACS buffer was added to aptamer/vWF. This reaction was allowed to proceed for 15 minutes at 37 degrees C. after which 200 uL of FACS buffer was added. Platelets were collected by a 6 minute spin at 1470 RCF and the supernatant was discarded. The pellets were resuspended in 100 uL of FACS buffer containing a 1:200 dilution of anti-Penta-HIS-biotin conjugate antibody and were incubated at room temperature for 30 minutes. After the dilution with 200 uL of FACS buffer, the platelets were spun at 1470 RCF for 6 minutes, and the supernatant was discarded. The pellets were resuspended in a 1:100 solution of anti-IgG-PE antibody and were incubated in the dark for 30 minutes at room temperature. The entire 100 uL was diluted into 200 uL of FACS buffer and analyzed immediately by flow cytometric analysis in the FACSCAN. Contaminating debris was eliminated from the analysis by drawing a gate around the population of single and aggregated platelets and collecting data from 10000 events. Median fluorescent intensity (“MedFI”) readings (which are generally equivalent to the MFI readings, described in Example 3a above, for comparative purposes) were quantified for each sample analyzed by flow cytometry. Background MedFI was subtracted from all data points. Percent inhibition was reported by calculating the percent value of binding of […] to platelets in the presence of aptamer at a given concentration relative to binding in the absence of any aptamer (see FIG. 7). IC50 values were determined by fitting the percent inhibition of vWF binding to platelets as a function of aptamer concentration to the equation: % inhibition=% inhibitionmax/(1+IC50/aptamer conc.)

[5] = system: botrocetin induced platelet aggregation; experiment: Inhibition of botrocetin induced platelet aggregation (BIPA) in human PRP; format: cell-based; details: botrocetin induced platelet aggregation, 6 minutes
Experimental: In platelet rich plasma isolated from fresh human blood, botrocetin induces platelet aggregation via vWF. Platelet aggregate formation can be measured optically as an increase in % light transmittance on a Chronolog Model 490-4D Aggregometer because aggregation of platelets clarifies the plasma. Aptamers of the invention were analyzed for their ability to inhibit botrocetin induced platelet aggregation (“BIPA”) in human blood. An aptamer of the invention was considered to be active if it could prevent aggregate formation for six minutes post botrocetin addition.
In order to determine the activity of aptamers on live human platelets, BIPA assays were done using freshly prepared platelet rich plasma. Blood was obtained from healthy human donors who had not taken NSAIDS for at least five days. […] Collected blood was pooled into 15 mL conical tubes and was spun at 200 g for 20 minutes. The turbid, yellow layer of platelet rich plasma (“PRP”) was withdrawn from the tubes, pooled, and set aside at room temperature. The remaining blood was spun at 2500 g for ten minutes. The clarified layer of plasma, known as platelet poor plasma (“PPP”), was withdrawn and set aside at room temperature. PRP was aliquoted into cuvettes containing stir bars at a volume of 470 uL. A sample of 500 uL of PPP was aliquoted into a cuvette and placed in the PPP reference cell of the platelet aggregometer. Samples of PRP were prewarmed at 37 degrees C. in the platelet aggregometer for 3-5 minutes before being used in BIPA assays. First, the concentration of botrocetin needed to induce platelet aggregation for each individual donor was determined by titration. This concentration of botrocetin was used for the remainder of the experiment. Next, aptamer was assayed by adding titrations of aptamer (zero, 1 nM to 1000 nM) to prewarmed PRP for one minute, followed by addition of botrocetin. With platelet aggregation, an increase in amplitude of light transmission is seen (FIG. 8). The concentration at which platelet aggregation is blocked at 90% or greater after 6 minutes is reported in the final column of Table 26.

[6] = system: full length human vWF (SEQ ID NO 7); experiment: dot blot KD determination and extent of binding, full length human vWF; details: for Kd: rRdY minimers, 8 point titration 0-300 nM, read-out: Full length human vWF KD; for Full length human vWF KD: DNA 2 minimers, 9 point protein titration;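 on all read-outs here: dot blot binding of aptamers to full length human vWF across a protein titration, incubated 30 minutes at room temperature in 1x DPBS with BSA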
[7] = molecular target: T1, human vWF A1 domain (SEQ ID NO 5); experiment: 3-point dot blot screen, human vWF A1 domain; format: binding; details: 100 nM human vWF A1 domain
How it was run: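 Values are ratios of aptamer fraction retained on nitrocellulose with 100 nM vWF A1 domain (human or rabbit) versus a no-protein control. Unique clones from rounds 9 and 12 pools were transcribed, desalted and 5'-32P labeled before this three-point dot blot screen.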

[8] = system: rabbit vWF A1 domain (SEQ ID NO 6); experiment: 3-point dot blot screen, rabbit vWF A1 domain; format: binding; details: for Screen- Rabbit/No Protein: 100 nM rabbit vWF A1 domain, ratio of fraction bound with target to without; for Screen Rabbit/No Protein: 3-point dot blot screen, 20 nM rabbit vWF A1 domain, ratio of fraction of aptamer bound with target protein to fraction bound without protein
How it was run: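 Rabbit vWF A1 domain binding was screened by dot blot using three conditions: no target protein, human vWF, and rabbit vWF A1 domain at 100 nM (20 nM in the screen run twice). Radiolabeled aptamer bound to nitrocellulose was quantified, and results are expressed as the ratio of bound fraction with protein to bound fraction without protein.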

full length human vWF = experiment: 3-point dot blot screen, full length human vWF; format: binding; details: 20 nM full length human vWF, ratio of fraction of aptamer bound with target protein to fraction bound without protein
How it was run: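 Unique aptamer clones tested twice by nitrocellulose dot blot with no protein, 20 nM full-length human vWF or 20 nM rabbit vWF A1 domain. Value is fraction of aptamer bound with target divided by fraction bound without protein.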

[9] = read-out: Inhibition of rabbit VWF A1 domain binding in FACS assay, Average IC50
[10] = DNA 2 minimers, 9 point protein titration
[11] = read-out: human A1 KD, rRfY aptamers, 8 point titration of human vWF A1 domain
[12] = both bounds in nM, read-out: Inhibition of rabbit VWF A1 domain binding in FACS assay, IC50 range

T1 sequence (P04275 with tags, fused parts or gaps T1381A): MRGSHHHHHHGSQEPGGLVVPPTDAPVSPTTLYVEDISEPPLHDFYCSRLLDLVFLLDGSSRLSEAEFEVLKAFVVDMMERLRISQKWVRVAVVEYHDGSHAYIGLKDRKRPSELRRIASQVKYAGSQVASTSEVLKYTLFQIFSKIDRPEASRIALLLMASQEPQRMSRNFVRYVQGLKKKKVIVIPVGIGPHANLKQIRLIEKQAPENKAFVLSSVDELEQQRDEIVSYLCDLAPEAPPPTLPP
rabbit vWF A1 domain (SEQ ID NO 6), sequence (as listed by the source): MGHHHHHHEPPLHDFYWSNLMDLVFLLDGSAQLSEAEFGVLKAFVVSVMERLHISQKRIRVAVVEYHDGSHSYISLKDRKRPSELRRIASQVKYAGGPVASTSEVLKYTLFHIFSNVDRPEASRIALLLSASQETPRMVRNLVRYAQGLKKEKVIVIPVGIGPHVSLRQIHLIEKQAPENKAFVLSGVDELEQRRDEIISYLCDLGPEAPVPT
rabbit vWF domain A1 binding to lyophilized platelets, sequence (as listed by the source): as above

CCAGCGGAATGAGAATGCTGATGGATTGCTCAGGTCTGCTGG (DNA, backbone not given here) [SEQ ID NO 204]
Rabbit vWF A1 domain KD ([1]; DNA 1 minimers): No binding
Human vWF A1 domain KD ([2]; DNA 1 minimers, competition dot blot, 10 nM protein): No binding

GGACCACCCUCGCAACGAGAGUUGUGCCGCUGGUCC (rGrGrAfCfCrAfCfCfCfUfCrGfCrArAfCrGrArGrArGfUfUrGfUrGfCfCrGfCfUrGrGfUfCfC) [SEQ ID NO 174, minimized rRfY aptamer]
IC50 [3]: 6.6 nM
IC50 [4, 9]: 6.8 nM
≦200 nM aptamer gives >90% blocking in BIPA at 6 minutes [5]: yes

GGAGCCACACGACATTGGCGCGAGAGCGCATGGCTCC (chemistry not given here) [SEQ ID NO 201, minimized rRdY aptamer]
IC50 [3]: 150 nM
≦200 nM aptamer gives >90% blocking in BIPA at 6 minutes [5]: no activity

GGCCACACGACATTGGCGGGCGAGAGCCACGCATGGCC (rGrGdCdCrAdCrAdCrGrAdCrAdTdTrGrGdCrGrGrGdCrGrArGrArGdCdCrAdCrGdCrAdTrGrGdCdC) [SEQ ID NO 198]
Kd [6]: 3 ± 0.6 nM
Kd [1]: 11 ± 2 nM
IC50 [3]: 20.6 nM
IC50 [4, 9]: 12.6 nM
Kd ([2]; read-out: Human vWF A1 domain KD, rRdY minimers, 8 point titration 0-300 nM): 5 ± 2 nM

GGCGTGCAGTGCCT-[PEG]-AGGCCGTGCGG-[PEG]-CCGTCACGCC-3T (DNA GGCGTGCAGTGCCTAGGCCGTGCGGCCGTCACGCCT; chemistry not fully specified) [ARC1031, minimized DNA aptamer]
Full length human vWF KD [6]: No binding
Rabbit vWF A1 domain KD [1, 10]: No binding
Inhibition of full length hVWF binding in FACS assay, IC50 range [3]: no activity

GGCGTGCAGTGCCTATTCTAGGCCGTGCGG-[PEG]-CCGTCACGCC-3T (DNA GGCGTGCAGTGCCTATTCTAGGCCGTGCGGCCGTCACGCCT; chemistry not fully specified) [ARC1030, minimized DNA aptamer]
Full length human vWF KD [6]: No binding
Rabbit vWF A1 domain KD [1, 10]: No binding
Inhibition of full length hVWF binding in FACS assay, IC50 range [3]: no activity

GGGACGGGGTGGGTAGACGGCGGGTATGTCCC (rGrGrGrAdCrGrGrGrGdTrGrGrGdTrArGrAdCrGrGdCrGrGrGdTrAdTrGdTdCdCdC) [SEQ ID NO 183, minimized rRdY aptamer]
Kd [6]: 10 ± 5 nM
Kd [1]: 14 ± 7 nM
IC50 [3]: 26.5 nM

B1: AMX201.B1: rRfY aptamer clone (nucleic acid)
chain: rGrGrArGfCrGfCrAfCfUfCrArGfCfCrAfCrArGrArGfCfCfCfUrGrArGfUrGfUrAfUrGrAfUfCrGfCfCfUrArGrAfUfCfUrAfUfCrGrAfUrGfCfUfUfUfUfUfCrGrAfCfCfUfCfUfCfUrGfCfUrArGfC
Inhibition of full length hVWF binding in FACS assay, IC50 range [3]: no activity
≦200 nM aptamer gives >90% blocking in BIPA at 6 minutes [5]: yes
Kd [2, 11]: 19 nM

B2: AMX201.H3: rRfY aptamer clone (nucleic acid)
chain: rGrGrArGfCrGfCrAfCfUfCrArGfCfCrAfCfUrArAfCrGrGfUfUrGrAfUfCfUfCrArGrGrAfCfUrArArAfUrArGfUfCrArAfCrArArGrGrAfUrGfCrGfUfUfUfCrGrAfCfCfUfCfUfCfUrGfCfUrArGfC
Screen- Human/No Protein ([7]; rRfY aptamers, ratio of fraction bound with target to fraction bound without target): 1.88
Screen- Rabbit/No Protein ([8]; rRfY aptamers): 1.89
Inhibition of full length hVWF binding in FACS assay, IC50 range [3]: no activity
≦200 nM aptamer gives >90% blocking in BIPA at 6 minutes [5]: yes
Kd [2, 11]: 90 nM

B3: AMX237.G7: DNA SELEX 2 aptamer clone (nucleic acid)
DNA: CTACCTACGATCTGACTAGCTTGGTAGCGACTTTGTGGAGCTGCGGTTTGGTCGACGTCAGCTTACTCTCATGTAGTTCC
modifications: DNA, backbone not given here
notes: DNA SELEX 2 aptamer clone
Screen Rabbit/No Protein [8]: 2.54
Screen- Human/No Protein (full length human vWF): 2.68
IC50 [3]: 6.5 nM
IC50 [4, 12]: 12.3 nM

B4: AMX236.A12: DNA SELEX 2 aptamer clone (nucleic acid)
chain: B3 DNA with T33C
modifications: DNA, backbone not given here
notes: DNA SELEX 2 aptamer clone
Screen Rabbit/No Protein [8]: 2.41
Screen- Human/No Protein (full length human vWF): 2.64
IC50 [3]: 10.7 nM
IC50 [4, 12]: 14.5 nM

B5: AMX205.H8: rRdY aptamer clone (nucleic acid)
chain: rGrGrArGdCrGdCrAdCdTdCrArGdCdCrAdCrArArAdCrGrGrAdCrGrGdTrGrAdTrGrGrAdTdTrArAdCrGdCrGrGrGdTdTdTrAdTrGrGdCrArArGrGdTdTdTdCrGrAdCdCdTdCdTdCdTrGdCdTrArGdC
Screen- Human/No Protein ([7]; rRdY aptamers, ratio of fraction bound with target to without): 2.04
Screen- Rabbit/No Protein ([8]; rRdY aptamers): 2.84
Inhibition of full length hVWF binding in FACS assay, IC50 range [3]: no activity
Kd ([2]; read-out: Human A1 KD, rRdY aptamers, 6 point protein titration): 788 nM

— patent US7998940B2, “Aptamers to von Willebrand factor and their use as thrombotic disease therapeutics” (Archemix Corp., priority 2004, dated 2011)
